± gives the expanded uncertainty stated by the source.
Experiment: wn = mass fraction of the nth substance listed
Conditions: 100 kPa, Liquid; for viscosity: Falling or rolling sphere viscometry; for speed of sound: Frequency=3 MHz, Single path-length method; for mass density: Vibrating tube method

CC(C)O [propan-2-ol] + O
Conditions | mass density, w1 = 0.1 [kg/m3] | mass density, w1 = 0.2 [kg/m3] | mass density, w1 = 0.3 [kg/m3] | speed of sound, w1 = 0.1 [m/s] | speed of sound, w1 = 0.2 [m/s] | speed of sound, w1 = 0.3 [m/s] | viscosity, w1 = 0.1 [mPa·s] | viscosity, w1 = 0.2 [mPa·s] | viscosity, w1 = 0.3 [mPa·s]
288.15 K | 983.401 ± 1.2 | 971.675 ± 1.5 | 954.62 ± 1.8 | 1573.7 ± 6.8 | 1638.6 ± 2.1 | 1586.9 ± 5.5 | 1.936 ± 0.16 | 3.087 ± 0.21 | 4.014 ± 0.26
293.15 K | 982.158 ± 1.3 | 969.345 ± 1.6 | 951.686 ± 1.8 | 1578.9 ± 5.5 | 1629.4 ± 2 | 1574.7 ± 5.8 | 1.633 ± 0.13 | 2.485 ± 0.17 | 3.172 ± 0.21
298.15 K | 980.642 ± 1.4 | 966.771 ± 1.7 | 948.106 ± 1.9 | 1582.9 ± 4.3 | 1620.2 ± 2.3 | 1562.8 ± 6.1 | 1.395 ± 0.11 | 2.045 ± 0.14 | 2.555 ± 0.16
303.15 K | 978.882 ± 1.5 | 964.199 ± 1.7 | 945.121 ± 1.9 | 1585.7 ± 3.2 | 1611 ± 2.7 | 1549.6 ± 6.5 | 1.208 ± 0.089 | 1.71 ± 0.11 | 2.105 ± 0.13

CCCO [propan-1-ol] + O
Conditions | mass density [kg/m3] | speed of sound [m/s] | viscosity [mPa·s]
288.15 K, w1 = 0.1 | 985.245 ± 1.4 | 1564.4 ± 3.1 | 1.82 ± 0.14
288.15 K, w1 = 0.2 | 971.452 ± 1.6 | 1587.4 ± 2.5 | 2.723 ± 0.18
288.15 K, w1 = 0.3 | 954.251 ± 1.9 | 1533.5 ± 5.5 | 3.208 ± 0.2
288.15 K, w1 = 0.4 | 934.617 ± 2 | 1485.7 ± 5.2 | 3.575 ± 0.22
293.15 K, w1 = 0.1 | 983.869 ± 1.5 | 1570.1 ± 2.3 | 1.545 ± 0.12
293.15 K, w1 = 0.2 | 969.02 ± 1.7 | 1581.6 ± 3 | 2.232 ± 0.14
293.15 K, w1 = 0.3 | 950.883 ± 1.9 | 1526.5 ± 5.6 | 2.618 ± 0.16
293.15 K, w1 = 0.4 | 931.255 ± 2 | 1477.2 ± 5.3 | 2.92 ± 0.18
298.15 K, w1 = 0.1 | 982.336 ± 1.6 | 1574.3 ± 2 | 1.333 ± 0.095
298.15 K, w1 = 0.2 | 966.338 ± 1.8 | 1575.5 ± 3.4 | 1.852 ± 0.12
298.15 K, w1 = 0.3 | 948.039 ± 2 | 1519.6 ± 5.7 | 2.174 ± 0.14
298.15 K, w1 = 0.4 | 927.818 ± 2.1 | 1468 ± 5.5 | 2.436 ± 0.15
303.15 K, w1 = 0.1 | 980.428 ± 1.7 | 1577.4 ± 2.2 | 1.156 ± 0.081
303.15 K, w1 = 0.2 | 963.667 ± 1.8 | 1569.5 ± 3.8 | 1.567 ± 0.1
303.15 K, w1 = 0.3 | 945.132 ± 2 | 1512.6 ± 5.9 | 1.841 ± 0.11
303.15 K, w1 = 0.4 | 924.386 ± 2.1 | 1458.6 ± 5.8 | 2.056 ± 0.13

Reference: the NIST ThermoML archive (doi:10.1016/j.jct.2019.105880)
